Measured values: the NIST ThermoML archive (doi:10.1016/j.jct.2018.08.013)
“And” between values parts separate entries of the source, which are not always exact repeats. Equal entries are not always repeated.

Assay: specific heat capacity at constant pressure; xn = mol fraction of the nth substance listed
Settings: 100 kPa, Crystal of intercomponent compound 1, x2 = 0.477

[Se] [selenium] + [In]
Settings	specific heat capacity
117.9 K, relaxation calorimetry	215.3 J/K/kg
117.98 K, relaxation calorimetry	213.08 J/K/kg
121.94 K, relaxation calorimetry	217.67 J/K/kg
121.97 K, relaxation calorimetry	216.38 J/K/kg
125.98 K, relaxation calorimetry	218.34 J/K/kg and 218.39 J/K/kg
130 K, relaxation calorimetry	220.35 J/K/kg
130.01 K, relaxation calorimetry	220.87 J/K/kg
133.92 K, relaxation calorimetry	223.14 J/K/kg
134.04 K, relaxation calorimetry	219.79 J/K/kg
138.04 K, relaxation calorimetry	223.76 J/K/kg
138.07 K, relaxation calorimetry	223.97 J/K/kg
141.97 K, relaxation calorimetry	225.82 J/K/kg
142.1 K, relaxation calorimetry	222.52 J/K/kg
146.07 K, relaxation calorimetry	227.01 J/K/kg
146.14 K, relaxation calorimetry	226.7 J/K/kg
150.02 K, relaxation calorimetry	228.71 J/K/kg
150.14 K, relaxation calorimetry	225.72 J/K/kg
154.13 K, relaxation calorimetry	230.11 J/K/kg
154.16 K, relaxation calorimetry	229.02 J/K/kg
162.19 K, relaxation calorimetry	232.33 J/K/kg
162.21 K, relaxation calorimetry	231.34 J/K/kg
170.26 K, relaxation calorimetry	233.51 J/K/kg
170.28 K, relaxation calorimetry	234.13 J/K/kg
178.32 K, relaxation calorimetry	235.16 J/K/kg
178.34 K, relaxation calorimetry	235.63 J/K/kg
186.37 K, relaxation calorimetry	236.76 J/K/kg
186.4 K, relaxation calorimetry	237.23 J/K/kg
194.4 K, relaxation calorimetry	238 J/K/kg
194.45 K, relaxation calorimetry	238.31 J/K/kg
202.42 K, relaxation calorimetry	239.96 J/K/kg
202.5 K, relaxation calorimetry	239.65 J/K/kg
210.44 K, relaxation calorimetry	241.2 J/K/kg
210.53 K, relaxation calorimetry	241.05 J/K/kg
218.46 K, relaxation calorimetry	241.51 J/K/kg
218.55 K, relaxation calorimetry	241.2 J/K/kg
226.5 K, relaxation calorimetry	242.85 J/K/kg
226.59 K, relaxation calorimetry	242.65 J/K/kg
234.52 K, relaxation calorimetry	243.63 J/K/kg
234.63 K, relaxation calorimetry	243.37 J/K/kg
242.56 K, relaxation calorimetry	244.4 J/K/kg
242.67 K, relaxation calorimetry	244.04 J/K/kg
250.6 K, relaxation calorimetry	245.28 J/K/kg
250.71 K, relaxation calorimetry	245.12 J/K/kg
255.57 K, relaxation calorimetry	245.59 J/K/kg
255.58 K, relaxation calorimetry	246.52 J/K/kg
258.63 K, relaxation calorimetry	245.95 J/K/kg
258.74 K, relaxation calorimetry	245.79 J/K/kg
264.04 K, relaxation calorimetry	247.24 J/K/kg
264.08 K, relaxation calorimetry	246.1 J/K/kg
265.74 K, Extra sensitive DSC	248.37 J/K/kg
266.66 K, relaxation calorimetry	246.62 J/K/kg
266.77 K, relaxation calorimetry	246.57 J/K/kg
270 K, Extra sensitive DSC	248.48 J/K/kg
272.24 K, relaxation calorimetry	248.48 J/K/kg
272.34 K, relaxation calorimetry	248.43 J/K/kg
274.69 K, relaxation calorimetry	247.7 J/K/kg
274.81 K, relaxation calorimetry	247.7 J/K/kg
275 K, Extra sensitive DSC	248.79 J/K/kg
280 K, Extra sensitive DSC	249.1 J/K/kg
280.72 K, relaxation calorimetry	249.15 J/K/kg
280.84 K, relaxation calorimetry	248.06 J/K/kg
282.72 K, relaxation calorimetry	248.48 J/K/kg
282.83 K, relaxation calorimetry	248.37 J/K/kg
285 K, Extra sensitive DSC	249.51 J/K/kg
288.98 K, relaxation calorimetry	249.72 J/K/kg
289.06 K, relaxation calorimetry	248.53 J/K/kg
290 K, Extra sensitive DSC	249.92 J/K/kg
290.72 K, relaxation calorimetry	248.79 J/K/kg
290.85 K, relaxation calorimetry	248.94 J/K/kg
294.72 K, relaxation calorimetry	248.58 J/K/kg
294.84 K, relaxation calorimetry	249.25 J/K/kg
295 K, Extra sensitive DSC	250.03 J/K/kg
297.48 K, relaxation calorimetry	249.25 J/K/kg
297.56 K, relaxation calorimetry	248.74 J/K/kg
298.75 K, relaxation calorimetry	248.74 J/K/kg
298.86 K, relaxation calorimetry	250.59 J/K/kg
300 K, Extra sensitive DSC	250.18 J/K/kg
303.85 K, relaxation calorimetry	252.19 J/K/kg
303.86 K, relaxation calorimetry	252.14 J/K/kg
305 K, Extra sensitive DSC	250.39 J/K/kg
305.75 K, relaxation calorimetry	251.52 J/K/kg
305.8 K, relaxation calorimetry	251.11 J/K/kg
306.87 K, relaxation calorimetry	252.97 J/K/kg and 252.76 J/K/kg
310 K, Extra sensitive DSC	251.42 J/K/kg
315 K, Extra sensitive DSC	252.09 J/K/kg
320 K, Extra sensitive DSC	251.78 J/K/kg
325 K, Extra sensitive DSC	252.3 J/K/kg
330 K, Extra sensitive DSC	253.12 J/K/kg
335 K, Extra sensitive DSC	254.52 J/K/kg
340 K, Extra sensitive DSC	254.88 J/K/kg
345 K, Extra sensitive DSC	255.7 J/K/kg
350 K, Extra sensitive DSC	256.89 J/K/kg
355 K, Extra sensitive DSC	257.82 J/K/kg
357.87 K, Extra sensitive DSC	258.59 J/K/kg
